US20230181493A1, “BIOMARKERS RELATED TO PARKINSON'S DISEASE AND METHODS OF USING THE SAME” (SENDA BIOSCIENCES, INC., priority 2020, published 2023)
Values belong to the compound of their own block, whether it stands above or below them.

Tests used:
[1] = biological target: T1, Tyrosine decarboxylase (tdc) (Enterococcus faecalis, UniProt P0DTQ4); experiment: Inhibition of tyrosine decarboxylase in vitro; type: biochemical; conditions: 60 min preincubation of tdc with inhibitor at room temperature; dopamine formed from levodopa, LC-MS
T1 construct: made in house
T1 sequence (P0DTQ4 1-620): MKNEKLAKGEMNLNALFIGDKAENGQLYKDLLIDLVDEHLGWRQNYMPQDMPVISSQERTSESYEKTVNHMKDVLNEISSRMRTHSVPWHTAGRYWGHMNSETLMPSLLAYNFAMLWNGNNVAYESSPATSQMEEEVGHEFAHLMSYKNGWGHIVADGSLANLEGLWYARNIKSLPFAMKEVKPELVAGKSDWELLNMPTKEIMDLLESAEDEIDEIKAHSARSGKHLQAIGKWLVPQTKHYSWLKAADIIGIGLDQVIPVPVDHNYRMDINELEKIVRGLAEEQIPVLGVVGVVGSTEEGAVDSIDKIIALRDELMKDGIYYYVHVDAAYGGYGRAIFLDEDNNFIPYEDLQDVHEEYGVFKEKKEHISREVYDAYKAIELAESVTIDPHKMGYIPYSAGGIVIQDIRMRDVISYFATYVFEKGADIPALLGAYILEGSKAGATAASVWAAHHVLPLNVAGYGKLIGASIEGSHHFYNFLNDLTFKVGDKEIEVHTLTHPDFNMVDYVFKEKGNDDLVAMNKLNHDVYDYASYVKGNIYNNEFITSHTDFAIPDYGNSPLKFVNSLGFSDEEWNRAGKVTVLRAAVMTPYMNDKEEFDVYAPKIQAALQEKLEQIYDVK
Protocol: Tyrosine decarboxylase (tdc) was obtained by following a previously published literature procedure (Rekdal et al., Science 2019; 364(6445):eaau6323). The tdc (220 nM final concentration) was thawed on ice and then mixed with pyridoxal-5-phosphate (2.2 mM final concentration) in 200 mM sodium acetate buffer, pH 5.5 optionally containing 1 mM TCEP. To this mixture was added inhibitor at a final concentration of 1000, 333, 111, 37, 12, 4.1, 1.4, or 0 μM (final volume: 100 μL; inhibitor was 100-fold concentrated in a solution of DMSO, H2O, or DMSO:H2O (1/1 v/v)). The protein-inhibitor mixture was incubated at room temperature for 60 min. 6 μL of this mixture was then withdrawn from each solution and mixed with 54 μL of 10 mM levodopa in 200 mM sodium acetate buffer pH 5.5. The final concentration of the reaction was 22 nM tdc, 220 μM pyridoxal-5-phosphate, 9 mM levodopa in 200 mM sodium acetate buffer pH 5.5 with 0-100 μM inhibitor. The reaction proceeded for 5 min at room temperature before being quenched by the addition of 540 μL acetonitrile containing 0.1% (v/v) formic acid supplemented with 200 nM tolbutamide as an internal standard. The reactions were centrifuged (3,000 g, 10 min), and then 100 μL of each supernatant was transferred to a fresh plate. 100 μL of acetonitrile containing 0.1% (v/v) formic acid supplemented with 200 nM tolbutamide was added. An external standard curve containing 0-150 μM dopamine was prepared in the exact same manner.
Dopamine formed in each reaction was quantified by using an Agilent 6470 triple quadrupole mass spectrometer equipped with an Acquity UPLC. Mobile phase A consisted of H2O containing 10 mM ammonium formate, pH 3.0 and supplemented with 0.1% (v/v) formic acid. Mobile phase B consisted of acetonitrile containing 10 mM ammonium formate, pH 3.0 and supplemented with 0.1% (v/v) formic acid. 5 μL of each sample was injected onto a BEH Amide column (Waters Corporation, 2.1×50 mm, 1.7 μm). The gradient was set to: 100% mobile phase B at 0 min, decreasing linearly to 65% mobile phase B by 1.5 min, held constant at 65% mobile phase B until 2.5 min, ramped back up to 100% mobile phase B by 2.6 min, and held constant at 100% mobile phase B until 4.2 min. The flow rate was 0.6 mL/min. The dopamine was detected by using the mass spectrometer in multiple reaction monitoring (MRM) mode, quantifying the transition 154.1 to 137.0 m/z in positive mode. The fragmentor setting was 74, the collision energy was 9, and the cell accelerator voltage was 4, and the dwell time was 20. Tolbutamide was monitored using MRM and quantifying the transition of 271.1 to 91.0 m/z in positive mode. The fragmentor setting was 88, the collision energy was 37, and the cell accelerator voltage was 4, and the dwell time was 20.
The amount of dopamine was quantified by normalizing the area to the area of tolbutamide internal standard within each sample. This relative response was then compared to that of the standard curve to obtain the dopamine formed within each sample. The concentration of dopamine formed as a function of the inhibitor concentration at the preincubation stage was plotted in GraphPad Prism 8, and the IC50 was calculated using the non-linear fit for the standard IC50 curve equation “[inhibitor] vs response (three parameters).”

[2] = test system: E. faecalis v583; experiment: Inhibition of Enterococcus faecalis decarboxylation activity in vitro; type: cell-based; conditions: levodopa remaining in E. faecalis v583 culture, BHI broth pH 5, 1.5 mM levodopa, 24 h at 37° C., anaerobic, read-out: IC50 @ 60 min
Protocol: A vial of 200 μL of E. faecalis v583 was removed from a −80° C. freezer and thawed in an anaerobic chamber containing an atmosphere of either 95/5 N2/H2 (v/v) or 90/5/5 N2/H2/CO2 (v/v). 200 μL was inoculated into 10 mL of sterile, anaerobic BHI broth, pH 5 (adjusted with NaOH). The culture was grown overnight at 37° C. under anaerobic conditions.
After overnight incubation, 40 μL of the saturated starter culture was mixed with 744 μL of sterile, anaerobic BHI broth, pH 5 that had been supplemented with 1.5 mM levodopa. To this was added 16 μL of a 50-fold concentrated stock solution of inhibitor that had been dissolved in either DMSO, H2O, or DMSO:H2O (1:1 v/v). The final concentration of the inhibitor in each condition was 0, 0.001, 0.01, 0.1, 1, 10, or 100 μM. The contents of each incubation were mixed, and then 100 μL was transferred into a fresh 96-well plate. […]
The samples were analyzed by using an Agilent 6470 triple quadrupole mass spectrometer equipped with an Acquity UPLC. […] The levodopa was detected by using the mass spectrometer in multiple reaction monitoring (MRM) mode, quantifying the transition 198.1 to 151.9 m/z in positive mode. […] Tolbutamide was monitored using MRM and quantifying the transition of 271.1 to 91.0 m/z in positive mode. […]
The amount of levodopa was quantified by normalizing the area to the area of tolbutamide internal standard within each sample. […]

[3] = carbidopa administered with levodopa; cited from earlier work
[4] = test system: hepatocytes
Protocol: In a 50 mL falcon tube, 40 mL of Gibco hepatocyte thawing medium was added. The remaining 10 mL of medium was used to gently transfer hepatocytes into a falcon tube using a wide-mouth pipette. The mixture was centrifuged briefly at low speed (100 g for 30 sec) to gather cells at the base of the tube. The supernatant was removed from the tube then bleached and the liquid discarded, leaving behind the cell pellet in the tube. About 4 mL of Gibco Williams E phenol-free medium was added to the tube to get a final count of 1 mil/mL, tilting gently by hand to scatter the cell pellet. […] Count was repeated twice and averaged to calculate the concentration in solution. Count of 1.2 mil/mL was found, and another 800 μL of incubation medium was added to the tube to bring the count to 1 mil/mL. Four wells of a 24 well plate were plated with 1 mL per well, and the plate was gently agitated to distribute a uniform number of cells per well. The plate was pre-incubated for about 10 min at 37° C. […] The plates were agitated to distribute compounds, then 200 μL aliquots were taken from each well and treated with an equal volume of ice-cold acetonitrile to quench catalysis and monitor progress. The quenching and sampling procedure was repeated at 4 h for 4-h samples. The quenched samples were centrifuged at 4000 g for 10 min at 4° C. and the supernatants were saved for analysis.

[5] = test system: microbial enzyme TDC in the rat microbiome; experiment: In vivo metabolism of levodopa: levodopa in circulation after inhibition of microbial TDC; conditions: oral gavage, whole blood, LC-MS/MS
Excerpt: The microbial enzyme TDC in the rat microbiome was inhibited with alpha-fluoromethyltyrosine (AFMT). On day 0, male Sprague Dawley rats were prophylactically treated with single oral gavage of vehicle, carbidopa, carbidopa+S-AFMT, or carbidopa+R-AFMT, respectively. On day 1, solutions of levodopa, carbidopa, S-AFMT in 1% methyl cellulose (w/v), and 1% ascorbic acid (w/w) in deionized (DI) water were applied by oral gavage to male Sprague Dawley rats.
Whole blood samples were drawn and levodopa concentrations were determined by LC-MS/MS at 0, 5, 10, 15, 30, 45, 90, and 180 min post-application (12 animals per time point).

Compound: NC(CF)(Cc1cccc(O)c1)C(=O)O (stereo not shown) [Compound R, 2-amino-3-fluoro-2-(3-hydroxybenzyl)propanoic acid]
IC50 @ 60 min [1]: Minor inhibition

Compound: CC(Cc1ccc(O)c(O)c1)(NN)C(=O)O (single isomer, unassigned; (-)) [carbidopa, (−)-L-α-hydrazino-α-methyl-β-(3,4-dihydroxybenzene) propanoic acid monohydrate]
reduction of the amount of levodopa required to produce a given response [3]: about 75%

Compound: NCCc1cccc(O)c1 [meta-tyramine]
metabolites produced by hepatocytes [4]: metabolic derivatives of meta-tyramine (e.g., 3-hydroxyphenylacetic acid and meta-tyramine-O-sulfate) were produced

Compound: N[C@@](CF)(Cc1ccc(O)cc1)C(=O)O [AFMT, alpha-fluoromethyltyrosine]
levels of levodopa at the earliest timepoint assessed [5]: elevated levels of levodopa at the earliest timepoint assessed

Compound: NC(Cc1ccc(O)cc1)(C(=O)O)C(F)F (stereo not shown) [Compound K, 2-amino-3,3-difluoro-2-(4-hydroxybenzyl)propanoic acid]
IC50 @ 60 min [1]: Minor inhibition

Other lines, results leading:

IC50 [1]: 82.3 µM
IC50 [2]: 18.5 µM
Compound: N[C@](CF)(Cc1ccc(O)cc1)C(=O)O [T, (R)-2-amino-3-fluoro-2-(4-hydroxybenzyl)propanoic acid]

IC50 [1]: 4 µM
IC50 [2]: 2 µM
Compound: N[C@@](CF)(Cc1ccc(O)cc1)C(=O)O [S, (S)-2-amino-3-fluoro-2-(4-hydroxybenzyl)propanoic acid]

IC50 [1]: > 1000 µM
Compound: COc1ccc(CCC(N)(CF)C(=O)O)cc1 (stereo not shown) [Compound U, 2-amino-2-(fluoromethyl)-4-(4-methoxyphenyl)butanoic acid]
